Measurements taken from ChEMBL document CHEMBL3046771, “Synthesis, spectral, and antimicrobial evaluation of some new 8-membered phosphorus heterocyclic compounds” (2011).

Experiments:
Format in all cases: functional
Helminthosporium [1] = experiment: Antifungal activity against Helminthosporium oryzae at 50 ppm by disc diffusion method; design: unit not given here
Helminthosporium [2] = experiment: Antifungal activity against Helminthosporium oryzae at 100 ppm by disc diffusion method; design: unit not given here
Aspergillus niger [3] = experiment: Antifungal activity against Aspergillus niger at 50 ppm by disk diffusion method; design: unit not given here
Aspergillus niger [4] = experiment: Antifungal activity against Aspergillus niger at 25 ppm by disk diffusion method; design: unit not given here
Aspergillus niger [5] = experiment: Antifungal activity against Aspergillus niger at 100 ppm by disk diffusion method; design: unit not given here
Staphylococcus aureus [6] = experiment: Antibacterial activity against Staphylococcus aureus at 100 ppm by disk diffusion method; design: unit not given here
Staphylococcus aureus [7] = experiment: Antibacterial activity against Staphylococcus aureus at 50 ppm by disk diffusion method
Escherichia coli [8] = experiment: Antibacterial activity against Escherichia coli at 25 ppm by disk diffusion method; design: unit not given here
Escherichia coli [9] = experiment: Antibacterial activity against Escherichia coli at 100 ppm by disk diffusion method; design: unit not given here
Escherichia coli [10] = experiment: Antibacterial activity against Escherichia coli at 50 ppm by disk diffusion method; design: unit not given here
Helminthosporium [11] = experiment: Antifungal activity against Helminthosporium oryzae at 25 ppm by disc diffusion method; design: unit not given here
Staphylococcus aureus [12] = experiment: Antibacterial activity against Staphylococcus aureus at 25 ppm by disk diffusion method; design: unit not given here

Row | Structure (SMILES) | inhibition zone (IZ) (Helminthosporium [1]) | inhibition zone (IZ) (Helminthosporium [2]) | inhibition zone (IZ) (Aspergillus niger [3]) | inhibition zone (IZ) (Aspergillus niger [4]) | inhibition zone (IZ) (Aspergillus niger [5]) | inhibition zone (IZ) (Staphylococcus aureus [6]) | inhibition zone (IZ) (Staphylococcus aureus [7]) [%] | inhibition zone (IZ) (Escherichia coli [8]) | inhibition zone (IZ) (Escherichia coli [9]) | inhibition zone (IZ) (Escherichia coli [10]) | inhibition zone (IZ) (Helminthosporium [11]) | inhibition zone (IZ) (Staphylococcus aureus [12])
1 | [Se]=P1(CBr)CNc2cccc3cccc(c23)NC1 | 8 | 9 | 6 | 4 | 10 | 9 | 8 | 4 | 12 | 6 |  | 
2 | CCC(C)OCP1(=S)CNc2cccc3cccc(c23)NC1 (centres undefined) | 12 | 13 | 10 | 9 | 14 | 13 | 12 | 9 | 14 | 10 | 8 | 8
3 | CC(Cc1ccccc1)OCP1(=S)CNc2cccc3cccc(c23)NC1 (centres undefined) | 9 | 10 | 9 | 8 | 13 | 10 | 9 | 8 | 8 | 9 | 7 | 7
4 | CCC(CO)NCP1(=S)CNc2cccc3cccc(c23)NC1 (centres undefined) | 9 | 11 | 10 | 8 | 10 | 11 | 9 | 8 | 10 | 10 | 5 | 5
5 | CC(NCP1(=S)CNc2cccc3cccc(c23)NC1)c1ccccc1 (centres undefined) | 7 | 12 | 7 | 6 | 9 | 12 | 7 | 6 | 11 | 7 | 8 | 8
6 | CCC(C)OCP1(=[Se])CNc2cccc3cccc(c23)NC1 (centres undefined) | 10 | 14 | 10 | 8 | 13 | 14 | 10 | 8 | 13 | 10 | 7 | 7
7 | CC(Cc1ccccc1)OCP1(=[Se])CNc2cccc3cccc(c23)NC1 (centres undefined) | 10 | 12 | 8 | 7 | 10 | 12 | 10 | 7 | 10 | 8 | 7 | 7
8 | CCC(CO)NCP1(=[Se])CNc2cccc3cccc(c23)NC1 (centres undefined) | 9 | 10 | 6 | 4 | 9 | 10 | 6 | 7 | 19 | 6 | 6 | 8
9 | CC(NCP1(=[Se])CNc2cccc3cccc(c23)NC1)c1ccccc1 (centres undefined) | 8 | 9 | 9 | 6 | 12 | 11 | 9 | 3 | 10 | 5 | 5 | 5
10 | S=P1(CBr)CNc2cccc3cccc(c23)NC1 | 11 | 13 | 5 | 3 | 9 | 13 | 11 | 3 | 10 | 5 | 9 | 9
11 | CC1(C)S[C@@H]2[C@H](NC(=O)Cc3ccccc3)C(=O)N2[C@H]1C(=O)O [PENICILLIN G] |  |  |  |  |  |  | 8 |  |  |  |  | 
